Results on 20 compounds are retold here after patent EP4389749A1, “SUBSTITUTED 3,7-DIHYDRO-1H-PURINE-2,6-DIONES AND USE THEREOF” (invIOs GmbH, priority 2022, dated 2024).

One experiment relates to CD4+ T-cells. Kind of experiment: Immunostimulation assay with anti-CD3/28 stimulated T-cells, CD69 expression by flow cytometry. Type of experiment: cell-based, human. As to the method: (§1) Selection of potent compounds based on structure activity relation (SAR) using human, anti-CD3/28 stimulated T-cells. Enhanced activation of stimulated T-cells is measured by CD69 expression by flowcytometry.
(§2) White blood cell enriched buffy coats were ordered from the Austrian red cross, diluted with PBS to a total volume of 480 ml, 30 ml transferred to 50ml falcons and 11 ml lymphoprep added. Cell suspensions were centrifuged for 20 min at 2200 rpm and the PBMC containing layer transferred, three times washed with PBS and counted.
(§3) 10^7 PBMCs were magnetically labeled with CD4 and CD8 microbeads according to manufacturer's instructions and separated using autoMACS device. For dose response experiments with purified CD4+CD8+ T-cells 80000 cells were seeded per 96-well flat bottom cell culture dish.
(§4) 10 mM compounds of the invention stocks were further diluted using DMSO and equal amounts transferred to T-cell containing 96-wells. Final concentrations tested were: 30 µM, 10 µM, 3 µM, 1 µM, 0.3 µM, 0.1 µM, 0.03 µM, 0.01 µM, 0.003 µM and 0.001 µM.
(§5) For the stimulation assays 80.000 purified CD4+ and CD8+ T-cells were seeded per 96-well and incubated with 1 µg/ml anti-CD3, 1 µg/ml anti-CD28 and compounds of the invention ranging from 0.001 µM to 30 µM. DMSO only wells served as control to determine minimal T-cell activation upon stimulation and CD3/28 coupled Dynabeads were used to determine the maximal activation of T-cells. Cells were cultured for 16 hours in a humidified incubator at 37 °C and 5 % CO2.
(§6) T-cells were stained for surface antigens (anti-CD4 and anti-CD8) and cell activation markers (anti-CD25 and anti-CD69). Additionally, a fixable viability dye was used to stain viable cells. Staining was performed for 15 minutes and cells analyzed using a Fortessa flow cytometer and FlowJo Software. EC50s were calculated using GraphPad Prism® and a variable slope model (agonist vs. response - variable slope).

In another experiment the test system is CD8+ T-cells. The description is as above. Type of experiment: cell-based, human. On the procedure: as §1, §2, §3, §4, §5, §6
[1] abbreviates: T-cell, purified human CD4+ and CD8+ T-cells, 1 µg/ml anti-CD3, 1 µg/ml anti-CD28, 16 hours, surface FACS, read-out: EC50 CD4+.
Setting [2] is: T-cell, purified human CD4+ and CD8+ T-cells, 1 µg/ml anti-CD3, 1 µg/ml anti-CD28, 16 hours, surface FACS, read-out: EC50 CD8+.

Like-named read-outs stand apart in the source and are kept apart here.

As for `Cc1ccc(COc2ccc(-c3nc4c(c(=O)[nH]c(=O)n4CC(O)CF)n3C)cc2F)cc1` (stereo not shown) [Compound 96, 3-(3-fluoro-2-hydroxypropyl)-8-(3-fluoro-4-((4-methylbenzyl)oxy)phenyl)-7-methyl-3,7-dihydro-1H-purine-2,6-dione], the EC50 with CD4+ T-cells (setting [1]) and in the experiment on CD8+ T-cells (setting [2]) was 100 to 500 nM throughout.

Turning to `COc1cc(-c2nc3c(c(=O)[nH]c(=O)n3CC(C)O)n2C)ccc1OCc1ccc(OC(F)(F)F)cc1` (stereo not shown) [Compound 82, 3-(2-hydroxypropyl)-8-(3-methoxy-4-((4-(trifluoromethoxy)benzyl)oxy)phenyl)-7-methyl-3,7-dihydro-1H-purine-2,6-dione], the EC50 in the experiment on CD4+ T-cells (setting [1]) and in the experiment on CD8+ T-cells (setting [2]) was 100 to 500 nM each time.

Consider `CC(O)Cn1c(=O)[nH]c(=O)c2c1nc(-c1ccc(OCc3ccc(Cl)c(F)c3)c(F)c1)n2C` (stereo not shown) [Compound 93, 8-(4-((4-chloro-3-fluorobenzyl)oxy)-3-fluorophenyl)-3-(2-hydroxypropyl)-7-methyl-3,7-dihydro-1H-purine-2,6-dione], for which the half-maximal effective concentration (EC50) with CD4+ T-cells (setting [1]) was 1000 to 5000 nM; in the experiment on CD8+ T-cells (setting [2]) it was 500 to 1000 nM.

As for `CC(O)Cn1c(=O)[nH]c(=O)c2c1nc(-c1ccc(Oc3ccc(OC(F)(F)F)cc3)c(Cl)c1)n2C` (stereo not shown) [Compound 179, 8-(3-chloro-4-(4-(trifluoromethoxy)phenoxy)phenyl)-3-(2-hydroxypropyl)-7-methyl-3,7-dihydro-1H-purine-2,6-dione], the figures for the EC50 in the experiment with CD4+ T-cells (setting [1]) and in the experiment on CD8+ T-cells (setting [2]) were above 5000 nM and 500 to 1000 nM, respectively.

Regarding `Cn1c(-c2ccc(OCc3ccc(C(F)F)cc3)c(F)c2)nc2c1c(=O)[nH]c(=O)n2CC(O)C(F)(F)F` (stereo not shown) [Compound 18], the concentration giving a half-maximal response (EC50) with CD4+ T-cells (16 h) was above 5000 nM; in the experiment on CD8+ T-cells (16 h), 1000 to 5000 nM.

With `CC(CO)Cn1c(=O)[nH]c(=O)c2c1nc(-c1ccc(Oc3ccc(OC(F)(F)F)cc3)cc1)n2C` (stereo not shown) [Compound 100, 3-(3-hydroxy-2-methylpropyl)-7-methyl-8-(4-(4-(trifluoromethoxy)phenoxy)phenyl)-3,7-dihydro-1H-purine-2,6-dione], the EC50 in the experiment with CD4+ T-cells (setting [1]) and in the experiment on CD8+ T-cells (setting [2]) was 100 to 500 nM in each case.

For the compound `Cn1c(-c2ccc(Oc3ccc(OC(F)(F)F)cc3)c(F)c2)nc2c1c(=O)[nH]c(=O)n2CC(O)CF` (stereo not shown) [Compound 149, 3-(3-fluoro-2-hydroxypropyl)-8-(3-fluoro-4-(4-(trifluoromethoxy)phenoxy)phenyl)-7-methyl-3,7-dihydro-1H-purine-2,6-dione], the EC50 with CD4+ T-cells (setting [1]) and with CD8+ T-cells (setting [2]) was 100 to 500 nM throughout.

As to `COc1cc(-c2nc3c(c(=O)[nH]c(=O)n3CC(O)C(F)F)n2C)ccc1OCc1ccccc1` (stereo not shown) [Compound 68, 8-(4-(benzyloxy)-3-methoxyphenyl)-3-(3,3-difluoro-2-hydroxypropyl)-7-methyl-3,7-dihydro-1H-purine-2,6-dione], the concentration for a half-maximal effect (EC50) in the experiment on CD4+ T-cells (setting [1]) and with CD8+ T-cells (setting [2]) was 100 to 500 nM each time.

For `Cn1c(-c2ccc(OCc3ccccc3)c(OC(F)(F)F)c2)nc2c1c(=O)[nH]c(=O)n2CC(O)CO` (stereo not shown) [Compound 116, 8-(4-(benzyloxy)-3-(trifluoromethoxy)phenyl)-3-(2,3-dihydroxypropyl)-7-methyl-3,7-dihydro-1H-purine-2,6-dione], the EC50 in the experiment with CD4+ T-cells (setting [1]) and in the experiment with CD8+ T-cells (setting [2]) was 500 to 1000 nM in each case.

Turning to `CC(O)Cn1c(=O)[nH]c(=O)c2c1nc(-c1ccc(Oc3cccc(OC(F)(F)F)c3)cc1)n2C` (stereo not shown) [Compound 191, 3-(2-hydroxypropyl)-7-methyl-8-(4-(3-(trifluoromethoxy)phenoxy)phenyl)-3,7-dihydro-1H-purine-2,6-dione], the EC50 in the experiment on CD4+ T-cells (setting [1]) and in the experiment with CD8+ T-cells (setting [2]) was 500 to 1000 nM in each case.

`CC(O)Cn1c(=O)[nH]c(=O)c2c1nc(-c1ccc(OCc3ccccc3)c(OC(F)(F)F)c1)n2C` (stereo not shown) [Compound 120, 8-(4-(benzyloxy)-3-(trifluoromethoxy)phenyl)-3-(2-hydroxypropyl)-7-methyl-3,7-dihydro-1H-purine-2,6-dione]: the EC50 with CD4+ T-cells (setting [1]) and in the experiment on CD8+ T-cells (setting [2]) was 100 to 500 nM each time.

Turning to `CC(O)Cn1c(=O)[nH]c(=O)c2c1nc(-c1ccc(Oc3ccc(OC(F)(F)F)cc3)c(OC(F)(F)F)c1)n2C` (stereo not shown) [Compound 156, 3-(2-hydroxypropyl)-7-methyl-8-(3-(trifluoromethoxy)-4-(4-(trifluoromethoxy)phenoxy)phenyl)-3,7-dihydro-1H-purine-2,6-dione], the EC50 in the experiment with CD4+ T-cells (setting [1]) and in the experiment on CD8+ T-cells (setting [2]) was 100 to 500 nM each time.

For `Cn1c(-c2ccc(Oc3ccc(OC(F)F)cc3)c(Cl)c2)nc2c1c(=O)[nH]c(=O)n2CC(O)CF` (stereo not shown) [Compound 148, 8-(3-chloro-4-(4-(difluoromethoxy)phenoxy)phenyl)-3-(3-fluoro-2-hydroxypropyl)-7-methyl-3,7-dihydro-1H-purine-2,6-dione], the EC50 in the experiment with CD4+ T-cells (setting [1]) and in the experiment on CD8+ T-cells (setting [2]) was 100 to 500 nM throughout.

In the case of `COc1cc(-c2nc3c(c(=O)[nH]c(=O)n3CC(O)CO)n2C)ccc1OCc1ccc(C(F)F)cc1` (stereo not shown) [Compound 72, 8-(4-((4-(difluoromethyl)benzyl)oxy)-3-methoxyphenyl)-3-(2,3-dihydroxypropyl)-7-methyl-3,7-dihydro-1H-purine-2,6-dione], the EC50 in the experiment on CD4+ T-cells (setting [1]) and with CD8+ T-cells (setting [2]) was 1000 to 5000 nM throughout.

With `COc1cc(-c2nc3c(c(=O)[nH]c(=O)n3CC(C)(C)O)n2C)ccc1OCc1ccccc1` [Compound 52, 8-(4-(benzyloxy)-3-methoxyphenyl)-3-(2-hydroxy-2-methylpropyl)-7-methyl-3,7-dihydro-1H-purine-2,6-dione], the figures for the EC50 with CD4+ T-cells (setting [1]) and in the experiment with CD8+ T-cells (setting [2]) were 1000 to 5000 nM and above 5000 nM, respectively.

On to `CC(O)Cn1c(=O)[nH]c(=O)c2c1nc(-c1ccc(Oc3ccc(OC(F)(F)F)c(Cl)c3)cc1)n2C` (stereo not shown) [Compound 194, 8-(4-(3-chloro-4-(trifluoromethoxy)phenoxy)phenyl)-3-(2-hydroxypropyl)-7-methyl-3,7-dihydro-1H-purine-2,6-dione], for which the EC50 lay within 100 to 500 nM with CD4+ T-cells (setting [1]) and 500 to 1000 nM in the experiment with CD8+ T-cells (setting [2]).

On to `CC(O)Cn1c(=O)[nH]c(=O)c2c1nc(-c1ccc(OCCCc3ccccc3)c(F)c1)n2C` (stereo not shown) [Compound 201, 8-(3-fluoro-4-(3-phenylpropoxy)phenyl)-3-(2-hydroxypropyl)-7-methyl-3,7-dihydro-1H-purine-2,6-dione], for which the EC50 with CD4+ T-cells (setting [1]) and in the experiment on CD8+ T-cells (setting [2]) was 100 to 500 nM throughout.

Turning to `COc1cc(-c2nc3c(c(=O)[nH]c(=O)n3CC(CO)C(F)F)n2C)ccc1OCc1ccc(C(F)F)cc1` (stereo not shown) [Compound 66, 3-(3,3-difluoro-2-(hydroxymethyl)propyl)-8-(4-((4-(difluoromethyl)benzyl)oxy)-3-methoxyphenyl)-7-methyl-3,7-dihydro-1H-purine-2,6-dione], the EC50 in the experiment with CD4+ T-cells (setting [1]) and in the experiment on CD8+ T-cells (setting [2]) was below 100 nM throughout.

`COc1cc(-c2nc3c(c(=O)[nH]c(=O)n3C[C@@H](C)O)n2C)ccc1OCc1ccccc1` [Compound 60, (R)-8-(4-(benzyloxy)-3-methoxyphenyl)-3-(2-hydroxypropyl)-7-methyl-3,7-dihydro-1H-purine-2,6-dione]: the EC50 with CD4+ T-cells (setting [1]) and in the experiment on CD8+ T-cells (setting [2]) was 1000 to 5000 nM in each case.

Consider `COc1cc(-c2nc3c(c(=O)[nH]c(=O)n3CC(C)O)n2C)ccc1OCc1ccc(C(F)(F)F)cc1` (stereo not shown) [Compound 89, 3-(2-hydroxypropyl)-8-(3-methoxy-4-((4-(trifluoromethyl)benzyl)oxy)phenyl)-7-methyl-3,7-dihydro-1H-purine-2,6-dione], for which the EC50 was 500 to 1000 nM with CD4+ T-cells (setting [1]) and 100 to 500 nM with CD8+ T-cells (setting [2]).
